# From patent publication US8188078B2 (Sanofi-Aventis, priority 2007, dated 2012)
# Structures can show the parent of a compound that is named as a salt.
# Assays:
# c-MET = molecular target: T1, c-MET (Homo sapiens, UniProt P08581); experiment: Test A: HTRF Met test in 96-well format; format: biochemical
# T1 construct: The recombinant DNA His-Tev-MET (956-1390) in pFastBac(Invitrogen); His (N, cleaved yes); Tev (TEV protease site) (N, cleaved yes); made in house; host or cells: SF21 insect cells (baculovirus, pFastBac)
# Outline: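 Percent inhibition was calculated from the HTRF 665/620 ratio, using Eu-cryptate anti-phosphotyrosine PT66 plus streptavidin-XL added with EDTA and read after 2 h. The reaction ran 10 min at room temperature: 5 nM tag-cleaved MET (956–1390), 10 µM ATP, 1 µg/ml poly-GAT, and compound from 0.17 nM to 10 µM in 3% DMSO.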
# RON = RON (Homo sapiens, UniProt Q04912); experiment: Test B: HTRF RON test in 96-well format; format: biochemical
# Method: B) HTRF RON Test in 96-Well Format
# The inhibitory potency (IC50) of molecules on the enzymatic activity of kinase phosphorylation RON is determined by the HTRF technique. The activity of the kinase is evaluated by measuring the phosphorylation of the substrate polyGAT by the enzyme, in the presence of ATP.
# Final RON 5 nM is incubated in the presence of the molecule to be tested (for a final concentration range from 0.17 nM to 10 μM, final DMSO 3%) in buffer MOPS 10 mM pH 7, DTT 1 mM, Tween 20 0.01%. This pre-incubation is performed in 96 half-well black plates in a volume of 35 μl for 30 minutes at room temperature.
# The reaction is initiated by adding 15 μl of a mixture of substrates constituted of biotinylated poly-(GAT) 1 μg/ml final and ATP 10 μM final in the presence of MgCl2 5 mM final for a final volume of 50 μl.
# After incubation for 30 min at room temperature, the reaction is stopped with 30 μl of a mixture of Hepes 100 mM final pH 7, potassium fluoride 400 mM final, BSA 0.1% and EDTA 133 mM in the presence of 80 ng per well of antibodies Streptavidin ITS-XL665 Cis-Bio Int. and 18 ng per well of anti-phosphotyrosine PT66 labelled with europium cryptate.
# After incubation for 2 hours at room temperature, reading is carried out at 2 wavelengths 620 nm and 665 nm in a Genios TECAN reader for the TRACE/HTRF technique and the percentage inhibition is calculated according to the 665/620 ratios.
# MKN45 cells = experiment: Test D: cellular proliferation by 14C-thymidine pulse, MKN45 cells; format: cell-based; conditions: cell line not stated (HCT116 or MKN45)
# Outline: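 MKN45 cells (7500/well, RPMI + 10% foetal calf serum) treated with 10 concentrations, 10000 to 0.3 nM in 3-fold steps, duplicate. 14C-thymidine (0.1 μCi/well) added at 72 h; incorporation counted after 24 h pulse, 96 h total treatment.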
# [1] = Homo sapiens, MKN-45, cellular proliferation by 14C-thymidine pulse
# Sequence of RON (Q04912 25-1400): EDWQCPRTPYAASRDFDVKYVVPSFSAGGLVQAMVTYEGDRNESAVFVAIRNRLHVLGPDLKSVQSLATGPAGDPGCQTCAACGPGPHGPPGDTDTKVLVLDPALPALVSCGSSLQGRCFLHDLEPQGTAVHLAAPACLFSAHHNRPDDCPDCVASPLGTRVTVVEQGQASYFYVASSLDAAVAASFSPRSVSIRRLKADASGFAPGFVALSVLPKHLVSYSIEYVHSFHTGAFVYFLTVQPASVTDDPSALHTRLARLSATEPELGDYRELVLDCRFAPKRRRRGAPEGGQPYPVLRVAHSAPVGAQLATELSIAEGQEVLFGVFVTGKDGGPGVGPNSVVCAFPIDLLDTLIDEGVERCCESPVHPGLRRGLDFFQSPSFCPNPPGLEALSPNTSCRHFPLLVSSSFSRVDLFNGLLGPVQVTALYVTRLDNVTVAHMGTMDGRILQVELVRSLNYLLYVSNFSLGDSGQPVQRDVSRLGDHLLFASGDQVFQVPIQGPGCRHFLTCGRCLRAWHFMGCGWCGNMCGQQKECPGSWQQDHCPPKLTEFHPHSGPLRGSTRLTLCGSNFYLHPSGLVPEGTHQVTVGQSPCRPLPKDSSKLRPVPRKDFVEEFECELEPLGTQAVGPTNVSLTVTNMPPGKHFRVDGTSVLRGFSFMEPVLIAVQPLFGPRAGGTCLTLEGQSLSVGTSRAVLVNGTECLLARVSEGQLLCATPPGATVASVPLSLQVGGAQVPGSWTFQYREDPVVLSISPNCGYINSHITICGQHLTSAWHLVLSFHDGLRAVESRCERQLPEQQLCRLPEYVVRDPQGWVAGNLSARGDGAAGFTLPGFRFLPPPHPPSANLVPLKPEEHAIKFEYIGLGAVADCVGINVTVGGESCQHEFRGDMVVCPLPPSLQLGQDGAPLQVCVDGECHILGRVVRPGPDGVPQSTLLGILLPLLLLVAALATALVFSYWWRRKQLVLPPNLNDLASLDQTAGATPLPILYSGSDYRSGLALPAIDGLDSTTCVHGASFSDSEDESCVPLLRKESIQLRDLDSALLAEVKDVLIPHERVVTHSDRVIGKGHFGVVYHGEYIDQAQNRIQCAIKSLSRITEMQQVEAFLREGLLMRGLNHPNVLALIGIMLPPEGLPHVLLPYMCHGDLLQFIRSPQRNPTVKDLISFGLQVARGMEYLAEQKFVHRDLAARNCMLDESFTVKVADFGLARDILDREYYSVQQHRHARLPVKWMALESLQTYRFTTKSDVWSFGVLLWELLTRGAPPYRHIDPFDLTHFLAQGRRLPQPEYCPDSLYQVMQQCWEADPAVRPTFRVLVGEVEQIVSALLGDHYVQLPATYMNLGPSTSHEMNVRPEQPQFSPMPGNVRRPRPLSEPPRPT
# T1 sequence (P08581 956-1390): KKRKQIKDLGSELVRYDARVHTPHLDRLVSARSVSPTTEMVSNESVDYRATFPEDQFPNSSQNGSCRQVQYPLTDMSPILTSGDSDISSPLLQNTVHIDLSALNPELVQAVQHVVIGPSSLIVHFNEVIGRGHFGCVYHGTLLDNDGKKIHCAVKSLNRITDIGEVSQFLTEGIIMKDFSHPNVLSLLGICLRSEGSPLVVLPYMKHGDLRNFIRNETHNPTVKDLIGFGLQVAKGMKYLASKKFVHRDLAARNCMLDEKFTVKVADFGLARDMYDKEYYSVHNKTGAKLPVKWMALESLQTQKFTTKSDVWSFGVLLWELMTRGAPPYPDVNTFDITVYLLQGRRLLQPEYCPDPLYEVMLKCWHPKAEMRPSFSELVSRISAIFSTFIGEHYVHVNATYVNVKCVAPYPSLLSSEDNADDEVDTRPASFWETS
SMILES,IC50 (c-MET),IC50 (RON),IC50 (MKN45 cells; [1]),IC50 (MKN45 cells; cellular proliferation by 14C-thymidine pulse)
"CNCCCNC(=O)Nc1nc2cc(F)c(OC(C)c3c(Cl)ccc(F)c3Cl)cc2s1 (stereo not drawn) [Example 127, 1-{6-[1-(2,6-dichloro-3-fluorophenyl)ethoxy]-5-fluoro-1,3-benzothiazol-2-yl}-3-[3-(methylamino)propyl]urea]",< 100 nM,500 to 10000 nM,500 to 10000 nM,–
"CC(Oc1ccc2nc(NC(=O)NCCCN3CCCCC3)sc2c1)c1c(Cl)ccc(F)c1Cl (stereo not drawn) [Example 44, 1-{6-[1-(2,6-dichloro-3-fluorophenyl)ethoxy]-1,3-benzothiazol-2-yl}-3-(3-piperidin-1-ylpropyl)urea]",< 100 nM,500 to 10000 nM,< 500 nM,–
"CC(Oc1ccc2nc(NC(=O)NCCN3CCOCC3)sc2c1)c1c(F)ccc(F)c1F (stereo not drawn) [Example 60, 1-(2-morpholin-4-ylethyl)-3-{6-[1-(2,3,6-trifluorophenyl)ethoxy]-1,3-benzothiazol-2-yl}urea]",< 100 nM,500 to 10000 nM,> 10000 nM,–
"CC(Oc1cc2sc(NC(=O)NCCN3CCOCC3)nc2cc1Cl)c1c(Cl)ccc(F)c1Cl (stereo not drawn) [Example 106, 1-{5-chloro-6-[1-(2,6-dichloro-3-fluorophenyl)ethoxy]-1,3-benzothiazol-2-yl}-3-[2-(morpholin-4-yl)ethyl]urea]",< 100 nM,500 to 10000 nM,500 to 10000 nM,–
"CC(Oc1ccc2nc(NC(=O)NCCN3CCOCC3)sc2c1)c1c(F)cccc1F (stereo not drawn) [Example 18, 1-{6-[1-(2,6-difluorophenyl)ethoxy]-1,3-benzothiazol-2-yl}-3-(2-morpholin-4-ylethyl)urea]",< 100 nM,500 to 10000 nM,500 to 10000 nM,–
"CC(Oc1ccc2nc(NC(=O)NCCC3CCNCC3)sc2c1)c1c(Cl)ccc(F)c1Cl (stereo not drawn) [Example 39, 1-{6-[1-(2,6-Dichloro-3-fluorophenyl)ethoxy]-1,3-benzothiazol-2-yl}-3-(2-piperidin-4-ylethyl)urea trifluoroacetate]",< 100 nM,< 500 nM,500 to 10000 nM,–
"CC(Oc1cc2sc(NC(=O)CCCN3CCCC3)nc2cc1F)c1c(Cl)ccc(F)c1Cl (stereo not drawn) [Example 68, N-{6-[1-(2,6-dichloro-3-fluorophenyl)ethoxy]-5-fluoro-1,3-benzothiazol-2-yl}-4-(pyrrolidin-1-yl)butanamide]",< 100 nM,500 to 10000 nM,500 to 10000 nM,–
"CC(Oc1ccc2nc(NC(=O)NCCN3CCOCC3)[nH]c2c1)c1cc(F)ccc1Cl (stereo not drawn) [Example 3, 1-{6-[1-(2-chloro-5-fluorophenyl)ethoxy]-1H-benzimidazol-2-yl}-3-(2-morpholin-4-ylethyl)urea]",< 100 nM,500 to 10000 nM,500 to 10000 nM,–
"CC(Oc1ccc2nc(NC(=O)NCCN3CCN(C(=O)OC(C)(C)C)CC3)sc2c1)c1c(Cl)ccc(F)c1Cl (stereo not drawn) [Example 36, 1,1-dimethylethyl 4-{2-[({6-[1-(2,6-dichloro-3-fluorophenyl)ethoxy]-1,3-benzothiazol-2-yl}carbamoyl)amino]ethyl}piperazine-1-carboxylate]",< 100 nM,500 to 10000 nM,> 10000 nM,–

# Now from value to compound:
IC50 (c-MET),IC50 (RON),IC50 (MKN45 cells; [1]),IC50 (MKN45 cells; cellular proliferation by 14C-thymidine pulse),SMILES
< 100 nM,< 500 nM,< 500 nM,–,"CC(Oc1cc2sc(NC(=O)NCCN3CCN(C)CC3)nc2cc1F)c1c(F)ccc(Cl)c1Cl (stereo not drawn) [Example 115, 1-{6-[1-(2,3-dichloro-6-fluorophenyl)ethoxy]-5-fluoro-1,3-benzothiazol-2-yl}-3-[2-(4-methylpiperazin-1-yl)ethyl]urea]"
< 100 nM,< 500 nM,500 to 10000 nM,–,"CC(Oc1cc2[nH]c(NC(=O)NCCN3CCOCC3)nc2cc1F)c1c(Cl)cccc1Cl (stereo not drawn) [Example 5, 1-{6-[1-(2,6-dichlorophenyl)ethoxy]-5-fluoro-1H-benzimidazol-2-yl}-3-(2-morpholin-4-ylethyl)urea]"
< 100 nM,< 500 nM,500 to 10000 nM,–,"CC(Oc1ccc2nc(NC(=O)NCCN3CCN(C)CC3)sc2c1)c1c(F)ccc(Cl)c1Cl (stereo not drawn) [Example 108, 1-{6-[1-(2,3-dichloro-6-fluorophenyl)ethoxy]-1,3-benzothiazol-2-yl}-3-[2-(4-methylpiperazin-1-yl)ethyl]urea]"
< 100 nM,< 500 nM,–,500 to 10000 nM,"C[C@@H](Oc1cc2sc(NC(=O)NCCN3CCOCC3)nc2cc1F)c1c(Cl)ccc(F)c1Cl (single isomer, unassigned) [Example 32, 1-{6-[(1R)-(2,6-dichloro-3-fluorophenyl)ethoxy]-5-fluoro-1,3-benzothiazol-2-yl}-3-(2-morpholin-4-ylethyl)urea or 1-{6-[(1S)-(2,6-dichloro-3-fluorophenyl)ethoxy]-5-fluoro-1,3-benzothiazol-2-yl}-3-(2-morpholin-4-ylethyl)urea]"
< 100 nM,500 to 10000 nM,> 10000 nM,–,"CC(Oc1ccc2nc(NC(=O)NCCCN3CCC(Cc4ccccc4)CC3)sc2c1)c1c(Cl)ccc(F)c1Cl (stereo not drawn) [Example 41, 1-[3-(4-benzylpiperidin-1-yl)propyl]-3-{6-[1-(2,6-dichloro-3-fluorophenyl)ethoxy]-1,3-benzothiazol-2-yl}urea]"
< 100 nM,< 500 nM,500 to 10000 nM,–,"CC(Oc1ccc2nc(NC(=O)NCCC3CCCN3C)sc2c1)c1c(F)ccc(Cl)c1Cl (stereo not drawn) [Example 110, 1-{6-[1-(2,3-dichloro-6-fluorophenyl)ethoxy]-1,3-benzothiazol-2-yl}-3-[2-(1-methylpyrrolidin-2-yl)ethyl]urea]"
< 100 nM,500 to 10000 nM,< 500 nM,–,"CC(Oc1ccc2nc(NC(=O)NCCN3C(C)CCCC3C)sc2c1)c1c(Cl)ccc(F)c1Cl (stereo not drawn) [Example 56, 1-{6-[1-(2,6-dichloro-3-fluorophenyl)ethoxy]-1,3-benzothiazol-2-yl}-3-[2-(2,6-dimethylpiperidin-1-yl)ethyl]urea]"
< 100 nM,500 to 10000 nM,500 to 10000 nM,–,"CC(Oc1cc2sc(NC(=O)NCC(=O)N3CCN(C)CC3)nc2cc1F)c1c(Cl)ccc(F)c1Cl (stereo not drawn) [Example 129, 1-{6-[1-(2,6-dichloro-3-fluorophenyl)ethoxy]-5-fluoro-1,3-benzothiazol-2-yl}-3-[2-(4-methylpiperazin-1-yl)-2-oxoethyl]urea]"
< 100 nM,< 500 nM,500 to 10000 nM,–,"CC(Oc1ccc2nc(NC(=O)NCCN3CCOCC3)[nH]c2c1)c1c(Cl)ccc(F)c1Cl (stereo not drawn) [Example 4, 4-{2-[({6-[1-(2,6-Dichloro-3-fluorophenyl)ethoxy]-1H-benzimidazol-2-yl}carbamoyl)amino]ethyl}morpholin-4-ium trifluoroacetate]"
< 100 nM,500 to 10000 nM,500 to 10000 nM,–,"CC(Oc1ccc2nc(NC(=O)NCCN3CCCCCC3)sc2c1)c1c(Cl)ccc(F)c1Cl (stereo not drawn) [Example 54, 1-(2-azepan-1-ylethyl)-3-{6-[1-(2,6-dichloro-3-fluorophenyl)ethoxy]-1,3-benzothiazol-2-yl}urea]"
< 100 nM,< 500 nM,< 500 nM,–,"CCN1CCN(CCNC(=O)Nc2nc3cc(F)c(OC(C)c4c(Cl)ccc(F)c4Cl)cc3s2)CC1 (single isomer, unassigned) [Example 101, 1-{6-[(1R*)-1-(2,6-dichloro-3-fluorophenyl)ethoxy]-5-fluoro-1,3-benzothiazol-2-yl}-3-[2-(4-ethylpiperazin-1-yl)ethyl]urea]"
< 100 nM,500 to 10000 nM,> 10000 nM,–,"CC(Oc1ccc2nc(NC(=O)NCCN3CCC(Cc4ccccc4)CC3)sc2c1)c1c(Cl)ccc(F)c1Cl (stereo not drawn) [Example 34, 1-[2-(4-benzylpiperidin-1-yl)ethyl]-3-{6-[1-(2,6-dichloro-3-fluorophenyl)ethoxy]-1,3-benzothiazol-2-yl}urea]"
< 100 nM,500 to 10000 nM,500 to 10000 nM,–,"O=C(NCCN1CCOCC1)Nc1nc2ccc(OCc3c(Cl)cccc3Cl)cc2s1 [Example 10, 1-{6-[(2,6-dichlorobenzyl)oxy]-1,3-benzothiazol-2-yl}-3-(2-morpholin-4-ylethyl)urea]"
< 100 nM,< 500 nM,< 500 nM,–,"CC(Oc1ccc2nc(NC(=O)NCCC3CCCN3C)sc2c1)c1c(Cl)ccc(F)c1Cl (stereo not drawn) [Example 53, 1-{6-[1-(2,6-dichloro-3-fluorophenyl)ethoxy]-1,3-benzothiazol-2-yl}-3-[2-(1-methylpyrrolidin-2-yl)ethyl]urea]"
